One data set concerns the target Lysozyme (Gallus gallus, UniProt P00698). The data set is described as follows: Lysozyme activity. In kind it is biochemical. To be noted: AzRu 100 μM; mean ± SEM.
For a further data set, the system named is Yeast hexokinase. The data set is described as follows: Yeast hexokinase activity. To be noted: mean ± SEM. In kind it is biochemical. The text has this: (§1) Unlabelled ryanodine was obtained from Calbiochem. […] Ruthenium chloride was purchased from Aldrich.
The subject of data set [1] is U-937 human monocytic cell line. The data set is described as follows: STS-induced apoptotic cell death of U-937 cells (acridine orange/ethidium bromide staining). In kind it is cell-based. To be noted: for Reduction of STS-activated apoptotic cell death: AzRu 10 μM added 18 h before STS 1.25 μM. On the procedure:
The U-937 human monocytic cell line was grown under an atmosphere of 95% air and 5% CO2 in RPMI 1640 supplemented with 10% fetal calf serum (FCS), 1 mM L-glutamine, 100 U/ml penicillin, and 100 μg/ml streptomycin. Cells were plated at a density of 5.4×10^4 cells/cm^2 in 24-well plates and then incubated with or without AzRu for 18 hr before exposure to 1.25 μM staurosporine (STS) to induce apoptosis. Cell viability was analyzed 5 and 7 hrs after STS addition by staining with 100 μg/ml acridine orange (AcOr) and 100 μg/ml ethidium bromide (EtBr) in PBS. The cells were then visualized by fluorescence microscopy (Olympus IX51) and images were recorded on an Olympus DP70 camera, using an SWB filter.
AzRu had no effect on the viability of the cells that were not exposed to STS. In FIG. 13 A, U-937 cells were incubated without (a, c) or with AzRu (10 μM) (b,d) for 18 hrs and thereafter were exposed to STS (1.25 μM) (c and d). After five hours the cells were stained with acridine orange and ethidium bromide. Arrows indicate cells in early apoptotic state, represented as degraded nucleus, but with intact cell membrane (stained by acridine orange). Arrowheads indicate a late apoptotic state, as shown by the presence of a degraded nucleus (stained by both acridine orange and ethidium bromide). Scale bar, 20 μm. In FIG. 13 B, quantitative analysis of apoptotic cell death in control cells and cells exposed to AzRu was assessed 5 and 7 hr after their exposure to STS (1.25 by ANOVA and t-test. P<0.001 was considered statistically significant (***). Data are the means±SEM, n=3. In each independent experiment, approximately 200 cells were counted for each treatment.

In another data set the target is Brain hexokinase (Homo sapiens, UniProt P19367). The data set is described as follows: Brain hexokinase activity. In kind it is biochemical. To be noted: mean ± SEM.
Sequence of Brain hexokinase (P19367 whole entry): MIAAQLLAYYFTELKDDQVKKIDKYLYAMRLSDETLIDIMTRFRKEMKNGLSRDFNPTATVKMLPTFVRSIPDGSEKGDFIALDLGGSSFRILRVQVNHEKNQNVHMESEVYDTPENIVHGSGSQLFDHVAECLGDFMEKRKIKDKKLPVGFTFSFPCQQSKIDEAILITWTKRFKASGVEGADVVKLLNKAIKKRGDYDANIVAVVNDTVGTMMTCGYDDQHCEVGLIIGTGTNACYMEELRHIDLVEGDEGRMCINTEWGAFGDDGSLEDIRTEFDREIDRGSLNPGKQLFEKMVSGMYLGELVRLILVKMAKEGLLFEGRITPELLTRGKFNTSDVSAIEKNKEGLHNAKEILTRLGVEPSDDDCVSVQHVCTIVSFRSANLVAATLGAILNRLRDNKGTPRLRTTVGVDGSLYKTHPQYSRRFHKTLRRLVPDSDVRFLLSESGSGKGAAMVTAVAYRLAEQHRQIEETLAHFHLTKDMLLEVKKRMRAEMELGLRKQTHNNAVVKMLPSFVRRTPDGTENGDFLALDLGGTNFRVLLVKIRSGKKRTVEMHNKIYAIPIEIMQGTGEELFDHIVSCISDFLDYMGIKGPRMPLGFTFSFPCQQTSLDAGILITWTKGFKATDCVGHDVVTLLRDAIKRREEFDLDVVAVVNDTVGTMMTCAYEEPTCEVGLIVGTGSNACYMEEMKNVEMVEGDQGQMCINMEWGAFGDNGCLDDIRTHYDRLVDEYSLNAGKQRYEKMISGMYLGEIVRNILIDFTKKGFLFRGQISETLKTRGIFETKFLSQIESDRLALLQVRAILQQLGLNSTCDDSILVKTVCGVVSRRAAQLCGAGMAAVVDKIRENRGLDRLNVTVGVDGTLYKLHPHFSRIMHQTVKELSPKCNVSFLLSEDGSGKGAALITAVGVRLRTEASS
The next data set deals with T1, Choline oxidase (Arthrobacter globiformis, UniProt Q7X2H8).
T1 construct: purchased Sigma
T1 sequence (Q7X2H8 whole entry, species assumed): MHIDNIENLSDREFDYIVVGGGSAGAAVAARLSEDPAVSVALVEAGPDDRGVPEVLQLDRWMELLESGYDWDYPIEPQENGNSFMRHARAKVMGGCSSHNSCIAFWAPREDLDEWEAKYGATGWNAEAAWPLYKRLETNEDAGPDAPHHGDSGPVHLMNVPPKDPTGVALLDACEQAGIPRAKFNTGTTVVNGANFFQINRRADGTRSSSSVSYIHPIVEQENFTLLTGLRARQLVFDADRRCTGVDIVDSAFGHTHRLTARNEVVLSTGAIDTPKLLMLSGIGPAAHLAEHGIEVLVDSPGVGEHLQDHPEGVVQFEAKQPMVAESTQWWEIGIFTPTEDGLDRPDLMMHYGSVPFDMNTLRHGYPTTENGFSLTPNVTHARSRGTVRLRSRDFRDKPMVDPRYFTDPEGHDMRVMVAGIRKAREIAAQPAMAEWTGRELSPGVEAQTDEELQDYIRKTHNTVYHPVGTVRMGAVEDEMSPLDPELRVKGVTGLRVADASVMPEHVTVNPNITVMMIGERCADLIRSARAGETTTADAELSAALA
Description: Choline oxidase activity. To be noted: AzRu 100 μM; mean ± SEM. In kind it is biochemical.
Description: as §1

Data set [2] concerns mitochondrial uniporter (Ca2+ uptake in mitochondria). Description: Ca2+ uptake/accumulation in isolated mitochondria. In kind it is biochemical, rat. On the procedure:
Sarcoplasmic reticulum (SR) membranes were prepared from rabbit fast twitch skeletal muscle as described by Saito [Saito et al.: J. Cell Biol. 99 (1984) 875-85]. Mitochondria were isolated from rat liver as described by us previously [Gincel D. et al.: Biochem J. 358 (2001) 147-55]. VDAC was purified by a method developed in our laboratory, using columns of hydroxyapatite and reactive red agarose [Gincel D. et al.: J. Bioenerget. Biomembr. 32 (2000) 571-83].
Ca^2+-accumulation in freshly prepared mitochondria (0.5 mg/ml) was assayed for 1 to 20 minutes at 30° C. in the presence of 225 mM mannitol, 75 mM sucrose, 120 μM CaCl2 (containing 3×10^4 cpm/nmol ^45Ca^2+), 5 mM HEPES/KOH pH 7.0, and 5 mM succinate with 0.1 mM Pi, or 4 mM MgCl2 with 3 mM ATP. The Ca^2+-uptake was terminated by rapid Millipore filtration, followed by a wash with 5 ml of 0.15 M KCl. The Ca^2+-accumulation in SR was determined as described previously [Shoshan-Barmatz V. & Shaineberg A.: Biochim. Biophys. Acta 1065 (1991) 82-8]. Electron transport from succinate to cytochrome c was described in above cited article [Gincel D. et al.: J. Bioenerget. Biomembr. 32 (2000) 571-83].
The effect of AzRu on mitochondrial process of electron transport from the donor succinate to the acceptor cytochrome c was characterized as described above. Although said electron transfer involves several dozens electron transfer carriers, this reaction was not affected by azido-ruthenium of this invention.
The hexavalent RuR and the trivalent Ru360 have been employed in various studies as inhibitors of Ca^2+-dependent reactions. As shown here, even with no photoactivation, AzRu, in contrast to RuR and Ru360, was effective in inhibiting the SR Ca^2+-pump (Table 3). […] This may open the way to inhibit other Ca^2+-dependent activities that are not sensitive to RuR, such as the plasma membrane Ca^2+-ATPase. […] RuR was employed to improve mitochondrial production in ischemic reperfused pig myocardium, was employed in the nervous system to follow neuronal death progress and can act as an anti-oxidant in certain conditions. Considering the potent activity of AzRu in RuR-insensitive reactions (see Table 3), its applications in various biological studies should be explored. Ca^2+ accumulation in SR and mitochondria was assayed as described above in the absence and presence of different concentrations of RuR (0.05-100 μM), Ru360 (0.01-100 μM) or AzRu (0.1-100 μM). The concentration required for 50% inhibition (IC50) was derived from the plot of Ca^2+ accumulation activity or ryanodine binding as a function of the reagent concentration. The results are the mean±SEM of 3 to 5 experiments (Table 3).

Data set [3] relates to glucose 6-phosphate dehydrogenase. The data set is described as follows: G-6-P dehydrogenase activity. In kind it is biochemical. To be noted: AzRu 100 μM; mean ± SEM.
Description: as §1

Another data set deals with T2, Luciferase (Photinus pyralis, UniProt P08659).
T2 construct: purchased Sigma
T2 sequence (P08659 whole entry): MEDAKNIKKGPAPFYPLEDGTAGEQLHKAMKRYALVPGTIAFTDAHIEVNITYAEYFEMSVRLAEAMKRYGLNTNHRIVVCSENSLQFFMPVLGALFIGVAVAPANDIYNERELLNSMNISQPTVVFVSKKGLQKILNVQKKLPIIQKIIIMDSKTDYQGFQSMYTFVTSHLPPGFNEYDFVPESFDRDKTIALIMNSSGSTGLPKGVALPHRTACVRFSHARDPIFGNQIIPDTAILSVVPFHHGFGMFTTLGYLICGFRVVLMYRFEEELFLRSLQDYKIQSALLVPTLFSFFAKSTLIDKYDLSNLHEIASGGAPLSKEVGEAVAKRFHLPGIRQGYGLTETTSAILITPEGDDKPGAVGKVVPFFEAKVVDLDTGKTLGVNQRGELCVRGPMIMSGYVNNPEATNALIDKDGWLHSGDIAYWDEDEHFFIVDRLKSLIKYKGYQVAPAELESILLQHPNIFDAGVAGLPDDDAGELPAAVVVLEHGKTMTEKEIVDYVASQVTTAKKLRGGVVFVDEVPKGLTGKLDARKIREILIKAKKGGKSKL
Description: Luciferase activity. In kind it is biochemical. To be noted: mean ± SEM.
Description: as §1

A further data set has as its system (Na+/K+)ATPase. Description: (Na+/K+)ATPase activity. To be noted: mean ± SEM. In kind it is biochemical.

Sequence of Lysozyme (P00698 19-147): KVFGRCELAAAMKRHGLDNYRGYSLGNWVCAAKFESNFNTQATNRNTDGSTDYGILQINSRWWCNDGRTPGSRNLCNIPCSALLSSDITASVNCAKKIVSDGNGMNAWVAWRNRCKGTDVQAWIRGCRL

As usually defined, the IC50 is the point on the concentration scale where inhibition reaches its midpoint. High values mean lower potency, low ones higher potency. Consider azido-ruthenium [AzRu], for which the “Activity (% of control), Lysozyme” value on Lysozyme is recorded as 101 ± 3 % of control. The figures for the “Activity (% of control), Yeast hexokinase” value in the data set on Yeast hexokinase (AzRu 20 μM) and with Yeast hexokinase (AzRu 100 μM) were 77 ± 5 % of control and 64 ± 4 % of control, respectively. In addition, the “Reduction of STS-activated apoptotic cell death” value in [1] (5 h of exposure to STS) is listed as “about 75%”; in [1] (7 h of exposure to STS), about 47%. Moreover, in [1] (U-937 cells, no STS), the “Effect on viability of cells not exposed to STS” value is “no effect”. For the same substance, the figures for the “Activity (% of control), Brain hexokinase” value on Brain hexokinase (AzRu 20 μM) and on Brain hexokinase (AzRu 100 μM) were 73 ± 7 % of control and 61 ± 3 % of control, respectively. Besides, the “Activity (% of control), Choline oxidase” value on Choline oxidase is 85 ± 3 % of control. Also, the “Activity (% of control), Ca2+ uptake in mitochondria” value in [2] (AzRu 20 μM, mean ± SEM) is 11 ± 4 % of control. Moreover, the “Effect on Ca2+ transport in mitochondria” value in [2] (isolated mitochondria, FIG. 7) is recorded as “inhibited”. This substance also had an IC50 in data set [2] (no UV, mean ± SEM of 3 to 5 experiments) of 1780 ± 120 nM. In addition, the “Activity (% of control), G-6-P dehydrogenase” value in [3] is recorded as 101 ± 7 % of control. The “Activity (% of control), Luciferase” value at Luciferase (AzRu 20 μM) is listed as 97 ± 1 % of control; at Luciferase (AzRu 100 μM), 67 ± 3 % of control. The “Activity (% of control), (Na+/K+)ATPase” value is given as 92 ± 5 % of control in the data set on (Na+/K+)ATPase (AzRu 20 μM) and 71 ± 4 % of control in the data set on (Na+/K+)ATPase (AzRu 100 μM).
